# Source: patent US8722849B2, “Polypeptides” (Novo Nordisk A/S, priority 2011, dated 2014)
# Starred links: 1 amine or outer side, 2 acyl side, 3 side chain; linkers in the order of their positions; H or OH if unused. Positions of bridges follow the written chain, without caps; N, C: chain ends. Residues, ends and D or L forms follow the SMILES beside them. Groups on a side chain read outwards from the residue. *: point of attachment. C20 diacid = O=C(O)CCCCCCCCCCCCCCCCCCC(=O)*; C18 diacid = O=C(O)CCCCCCCCCCCCCCCCC(=O)*; γGlu = O=C(O)[C@H](CCC(=O)[*:2])N[*:1]; AEEA = NCCOCCOCC(=O)O
# Assays:
# [1] = molecular target: T1, rat amylin 3(a) receptor (rat calcitonin(a) receptor + rat RAMP3) (Rattus norvegicus, UniProt P32214+Q9JJ73); test: Assay (II)b functional cAMP FlashPlate assay, rat amylin receptor; format: cell-based; settings: Table 11
# T1 construct: expressed in transfected cells; host or cells: BHK tk'ts 13
# T1 sequence (P32214 25-479 isoform P32214-2 limits assumed): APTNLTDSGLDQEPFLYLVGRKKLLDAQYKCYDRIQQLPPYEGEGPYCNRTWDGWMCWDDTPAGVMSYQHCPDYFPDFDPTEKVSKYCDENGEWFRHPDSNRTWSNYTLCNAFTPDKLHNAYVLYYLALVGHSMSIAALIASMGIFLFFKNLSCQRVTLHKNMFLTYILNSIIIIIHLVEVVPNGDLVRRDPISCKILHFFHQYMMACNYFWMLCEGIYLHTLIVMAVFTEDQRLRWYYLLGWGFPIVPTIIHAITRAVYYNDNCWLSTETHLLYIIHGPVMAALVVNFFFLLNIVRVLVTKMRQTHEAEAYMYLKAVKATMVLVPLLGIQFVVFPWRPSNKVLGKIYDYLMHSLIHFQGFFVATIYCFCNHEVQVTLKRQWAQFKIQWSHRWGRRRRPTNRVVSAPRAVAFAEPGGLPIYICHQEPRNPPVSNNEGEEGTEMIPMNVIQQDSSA
# T1 sequence (Q9JJ73 23-147 partner): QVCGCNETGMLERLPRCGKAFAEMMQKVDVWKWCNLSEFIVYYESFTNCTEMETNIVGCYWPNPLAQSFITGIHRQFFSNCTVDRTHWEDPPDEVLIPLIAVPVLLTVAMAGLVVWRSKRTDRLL
# Summary of the method: (§1)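 BHK tk'ts 13 cells transiently transfected with rat calcitonin(a) receptor, alone or with rat RAMP3 (amylin 3(a)), were stimulated 24 hours later with sample for 30 min in buffer containing IBMX. cAMP measured by competitive radioactive FlashPlate assay, scintillation read after 3 h detection incubation.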
# [2] = molecular target: T2, rat calcitonin (a) receptor (Rattus norvegicus, UniProt P32214); test: Assay (II)b functional cAMP FlashPlate assay, rat calcitonin receptor; format: cell-based; settings: Table 11; read-out: CTa receptor rat EC50
# T2 construct: expressed in transfected cells; host or cells: BHK tk'ts 13
# T2 sequence (P32214 25-479 isoform P32214-2 limits assumed): T1 sequence (P32214 25-479 isoform P32214-2 limits assumed)
# Summary of the method: as §1
# [3] = Assay (III) ThT fibrillation assay for physical stability; format: physicochemical
# Summary of the method: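 Freshly prepared formulations, pH-adjusted, with 1 μM ThT; four or eight replicates incubated at 37 °C under 960 rpm orbital shaking. Fluorescence (ex 444/em 485 nm) read every 20 min; […]. Peptide concentration measured by RP-HPLC before and after the run.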
SMILES,EC50 [1] [nM],EC50 [2] [nM],ThT pH 4.0 lag time (h) ([3]; ThT fibrillation assay),ThT pH 4.0 lag time ([3]; Table 8) [h],ThT pH 4.0 lag time ([3]; Table 9) [h],ThT pH 4.0 lag time ([3]; ThT fibrillation assay) [h]
"CC[C@H](C)[C@H](NC(=O)[C@@H]1CCCN1C(=O)CNC(=O)[C@H](Cc1ccccc1)NC(=O)[C@H](CC(N)=O)NC(=O)[C@H](CC(N)=O)NC(=O)[C@H](CO)NC(=O)[C@H](CO)NC(=O)[C@H](Cc1c[nH]cn1)NC(=O)[C@H](Cc1c[nH]cn1)NC(=O)[C@H](CC(C)C)NC(=O)[C@H](Cc1ccccc1)NC(=O)[C@H](CCC(=O)O)NC(=O)[C@H](C)NC(=O)[C@H](CC(C)C)NC(=O)[C@H](CCCNC(=N)N)NC(=O)[C@H](CCC(N)=O)NC(=O)[C@@H](NC(=O)[C@H](C)NC(=O)[C@@H]1CSSC[C@H](NC(=O)[C@H](Cc2c[nH]cn2)NC(=O)CC[C@H](NC(=O)CCCCCCCCCCCCCCCCC(=O)O)C(=O)O)C(=O)N[C@@H](CC(N)=O)C(=O)N[C@@H]([C@@H](C)O)C(=O)N[C@@H](C)C(=O)N[C@@H]([C@@H](C)O)C(=O)N1)[C@@H](C)O)C(=O)N[C@@H](CC(C)C)C(=O)N1CCC[C@H]1C(=O)N1CCC[C@H]1C(=O)N[C@H](C(=O)N[C@@H](CC(N)=O)C(=O)N[C@H](C(=O)NCC(=O)N[C@@H](CO)C(=O)N[C@@H](CC(N)=O)C(=O)N[C@H](C(=O)N[C@@H](Cc1ccc(O)cc1)C(N)=O)[C@@H](C)O)C(C)C)[C@@H](C)O [Example 48, N-alpha-[(S)-4-Carboxy-4-(17-carboxyheptadecanoylamino)butyryl]-[His1,Glu14,His17]-pramlintide] ({C18 diacid-γGlu}-HCNTATCATQRLAEFLHHSSNNFGPILPPTNVGSNTY-NH2; disulfide 2-7 (inferred))",0.015,0.375,9,–,–,–
"CC[C@H](C)[C@H](NC(=O)[C@@H]1CCCN1C(=O)CNC(=O)[C@H](Cc1ccccc1)NC(=O)[C@H](CC(N)=O)NC(=O)[C@H](CC(N)=O)NC(=O)[C@H](CO)NC(=O)[C@H](CO)NC(=O)[C@H](Cc1c[nH]cn1)NC(=O)[C@H](Cc1c[nH]cn1)NC(=O)[C@H](CC(C)C)NC(=O)[C@H](Cc1ccccc1)NC(=O)[C@H](CCC(=O)O)NC(=O)[C@H](C)NC(=O)[C@H](CC(C)C)NC(=O)[C@H](CCCNC(=N)N)NC(=O)[C@H](CCC(N)=O)NC(=O)[C@@H](NC(=O)[C@H](C)NC(=O)[C@@H]1CSSC[C@H](NC(=O)[C@H](CCCCN)NC(=O)CC[C@H](NC(=O)CCCCCCCCCCCCCCCCC(=O)O)C(=O)O)C(=O)N[C@@H](CC(N)=O)C(=O)N[C@@H]([C@@H](C)O)C(=O)N[C@@H](C)C(=O)N[C@@H]([C@@H](C)O)C(=O)N1)[C@@H](C)O)C(=O)N[C@@H](CC(C)C)C(=O)N1CCC[C@H]1C(=O)N1CCC[C@H]1C(=O)N[C@H](C(=O)N[C@@H](CC(N)=O)C(=O)N[C@H](C(=O)NCC(=O)N[C@@H](CO)C(=O)N[C@@H](Cc1c[nH]cn1)C(=O)N[C@H](C(=O)N[C@@H](Cc1ccc(O)cc1)C(N)=O)[C@@H](C)O)C(C)C)[C@@H](C)O [Example 59, N-alpha-[(S)-4-Carboxy-4-(17-carboxyheptadecanoylamino)butyryl]-[Glu14,His17,His35]-pramlintide] ({C18 diacid-γGlu}-KCNTATCATQRLAEFLHHSSNNFGPILPPTNVGSHTY-NH2; disulfide 2-7 (inferred))",0.023,0.148,>45,>45,>45,>45
"CC[C@H](C)[C@H](NC(=O)[C@@H]1CCCN1C(=O)CNC(=O)[C@H](Cc1ccccc1)NC(=O)[C@H](CC(N)=O)NC(=O)[C@H](CC(N)=O)NC(=O)[C@H](CO)NC(=O)[C@H](CO)NC(=O)[C@H](Cc1c[nH]cn1)NC(=O)[C@H](Cc1c[nH]cn1)NC(=O)[C@H](CC(C)C)NC(=O)[C@H](Cc1ccccc1)NC(=O)[C@H](CCC(=O)O)NC(=O)[C@H](C)NC(=O)[C@H](CC(C)C)NC(=O)[C@H](CCCNC(=N)N)NC(=O)[C@H](CCC(N)=O)NC(=O)[C@@H](NC(=O)[C@H](C)NC(=O)[C@@H]1CSSC[C@H](NC(=O)[C@H](Cc2c[nH]cn2)NC(=O)[C@H](Cc2c[nH]cn2)NC(=O)[C@H](Cc2c[nH]cn2)NC(=O)CC[C@H](NC(=O)CCCCCCCCCCCCCCCCCCC(=O)O)C(=O)O)C(=O)N[C@@H](Cc2c[nH]cn2)C(=O)N[C@@H]([C@@H](C)O)C(=O)N[C@@H](C)C(=O)N[C@@H]([C@@H](C)O)C(=O)N1)[C@@H](C)O)C(=O)N[C@@H](CC(C)C)C(=O)N1CCC[C@H]1C(=O)N1CCC[C@H]1C(=O)N[C@H](C(=O)N[C@@H](CC(N)=O)C(=O)N[C@H](C(=O)NCC(=O)N[C@@H](CO)C(=O)N[C@@H](Cc1c[nH]cn1)C(=O)N[C@H](C(=O)N[C@@H](Cc1ccc(O)cc1)C(N)=O)[C@@H](C)O)C(C)C)[C@@H](C)O [Example 32, N-alpha-[(S)-4-Carboxy-4-(19-carboxynonadecanoylamino)butyryl]-His-His-[His1,His3,Glu14,His17,His35]-pramlintide] ({C20 diacid-γGlu}-HHHCHTATCATQRLAEFLHHSSNNFGPILPPTNVGSHTY-NH2; disulfide 4-9 (inferred))",0.401,4.87,>45,–,–,>45
"CC[C@H](C)[C@H](NC(=O)[C@@H]1CCCN1C(=O)CNC(=O)[C@H](Cc1ccccc1)NC(=O)[C@H](CC(N)=O)NC(=O)[C@H](CC(N)=O)NC(=O)[C@H](CO)NC(=O)[C@H](CO)NC(=O)[C@H](Cc1c[nH]cn1)NC(=O)[C@H](CCCNC(=N)N)NC(=O)[C@H](CC(C)C)NC(=O)[C@H](Cc1ccccc1)NC(=O)[C@H](CCC(=O)O)NC(=O)[C@H](C)NC(=O)[C@H](CC(C)C)NC(=O)[C@H](CCCNC(=N)N)NC(=O)[C@H](CCC(N)=O)NC(=O)[C@@H](NC(=O)[C@H](C)NC(=O)[C@@H]1CSSC[C@H](NC(=O)[C@H](CCCCN)NC(=O)[C@H](CCC(=O)O)NC(=O)CC[C@H](NC(=O)CCCCCCCCCCCCCCCCC(=O)O)C(=O)O)C(=O)N[C@@H](CC(N)=O)C(=O)N[C@@H]([C@@H](C)O)C(=O)N[C@@H](C)C(=O)N[C@@H]([C@@H](C)O)C(=O)N1)[C@@H](C)O)C(=O)N[C@@H](CC(C)C)C(=O)N1CCC[C@H]1C(=O)N1CCC[C@H]1C(=O)N[C@H](C(=O)N[C@@H](CC(N)=O)C(=O)N[C@H](C(=O)NCC(=O)N[C@@H](CO)C(=O)N[C@@H](Cc1c[nH]cn1)C(=O)N[C@H](C(=O)N[C@@H](Cc1ccc(O)cc1)C(N)=O)[C@@H](C)O)C(C)C)[C@@H](C)O [Example 62, N-alpha-[(S)-4-Carboxy-4-(17-carboxyheptadecanoylamino)butyryl]-Glu-[Glu14,Arg17,His35]-pramlintide] ({C18 diacid-γGlu}-EKCNTATCATQRLAEFLRHSSNNFGPILPPTNVGSHTY-NH2; disulfide 3-8 (inferred); C-terminus assumed)",0.281,17.6,30,30,–,30
"CC[C@H](C)[C@H](NC(=O)[C@H](CCCCNC(=O)COCCOCCNC(=O)COCCOCCNC(=O)CC[C@H](NC(=O)CCCCCCCCCCCCCCCCC(=O)O)C(=O)O)NC(=O)CNC(=O)[C@H](Cc1ccccc1)NC(=O)[C@H](CC(N)=O)NC(=O)[C@H](CC(N)=O)NC(=O)[C@H](CO)NC(=O)[C@H](CO)NC(=O)[C@H](Cc1c[nH]cn1)NC(=O)[C@H](Cc1c[nH]cn1)NC(=O)[C@H](CC(C)C)NC(=O)[C@H](Cc1ccccc1)NC(=O)[C@H](CCC(=O)O)NC(=O)[C@H](C)NC(=O)[C@H](CC(C)C)NC(=O)[C@H](CCCNC(=N)N)NC(=O)[C@H](CCC(N)=O)NC(=O)[C@@H](NC(=O)[C@H](C)NC(=O)[C@@H]1CSSC[C@H](NC(=O)[C@@H](N)CCCCN)C(=O)N[C@@H](CC(N)=O)C(=O)N[C@@H]([C@@H](C)O)C(=O)N[C@@H](C)C(=O)N[C@@H]([C@@H](C)O)C(=O)N1)[C@@H](C)O)C(=O)N[C@@H](CC(C)C)C(=O)N1CCC[C@H]1C(=O)N1CCC[C@H]1C(=O)N[C@H](C(=O)N[C@@H](CC(N)=O)C(=O)N[C@H](C(=O)NCC(=O)N[C@@H](CO)C(=O)N[C@@H](CC(N)=O)C(=O)N[C@H](C(=O)N[C@@H](Cc1ccc(O)cc1)C(N)=O)[C@@H](C)O)C(C)C)[C@@H](C)O [Example 73, N-epsilon25-[2-(2-{2-[2-(2-{2-[(S)-4-Carboxy-4-(17-carboxyheptadecanoylamino)butyrylamino]ethoxy}ethoxy)acetylamino]ethoxy}ethoxy)acetyl]-[Glu14,His17,Lys25]-pramlintide] (H-KCNTATCATQRLAEFLHHSSNNFGK([AEEA-AEEA-γGlu-C18 diacid])ILPPTNVGSNTY-NH2; disulfide 2-7 (inferred); N-terminus and C-terminus assumed)",0.052,0.167,>45,>45,–,>45
